Data from patent publication US10336702B2, “Pharmaceutically active compounds” (BERGENBIO ASA, priority 2015, dated 2019).
Values belong to the compound of their own block, whether it stands above or below them.

Assays:
p-Akt2 in WM115 cells = molecular target: T1, p-Akt2 in WM115 cells (Homo sapiens, UniProt P31751); assay: Phospho-Akt cellular SureFire assay, p-Akt2 in WM115 cells; type: cell-based; conditions: insulin stimulated, read-out: Biological Assay 2 IC50 (nM) Akt2 WM115
T1 construct: SureFire assays to detect cellular p-Akt1, p-Akt2 and p-Akt3 levels in WM115 cells (Akt2/3) and LNCaP cells (Akt1); endogenous in cells; host or cells: WM115 (ECACC 91061232), insulin-stimulated
T1 sequence (P31751 whole entry): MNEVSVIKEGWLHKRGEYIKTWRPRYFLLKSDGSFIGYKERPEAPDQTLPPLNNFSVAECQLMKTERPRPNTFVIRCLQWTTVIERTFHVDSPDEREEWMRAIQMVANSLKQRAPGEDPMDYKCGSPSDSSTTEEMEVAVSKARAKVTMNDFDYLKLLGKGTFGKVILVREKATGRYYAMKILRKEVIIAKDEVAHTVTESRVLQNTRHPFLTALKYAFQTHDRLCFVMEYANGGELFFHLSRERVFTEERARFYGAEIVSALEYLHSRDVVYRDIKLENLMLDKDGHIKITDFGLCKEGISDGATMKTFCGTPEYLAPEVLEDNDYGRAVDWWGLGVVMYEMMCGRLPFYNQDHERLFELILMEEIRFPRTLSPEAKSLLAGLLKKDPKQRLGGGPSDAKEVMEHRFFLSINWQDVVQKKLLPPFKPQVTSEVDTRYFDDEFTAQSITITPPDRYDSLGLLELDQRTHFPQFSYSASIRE
Outline: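 Readout is a bead-proximity SureFire assay pairing a pThr308 Akt antibody with a total Akt2 antibody, lysate and beads incubated 2 h plus 2 h at room temperature in the dark. Before lysis, serum-starved WM115 cells received 100 nM insulin (10 min), then test compound (15 min, 0.3% DMSO); IC50 by 4-parameter equation.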

Akt1 = molecular target: T2, Akt1 (Homo sapiens, UniProt P31749); assay: Akt activation assay (PDK1-mediated activation, LANCE Ultra crosstide TR-FRET), Akt1; type: biochemical; conditions: read-out: Biological Assay 1 IC50 (nM) Akt1
T2 construct: unspecified tag, removed (detagged) (cleaved yes); purchased SignalChem and Proteros (Akt1); Merck Millipore (PDK1) 14-452 (PDK1); none given for Akt1
T2 sequence (P31749 whole entry): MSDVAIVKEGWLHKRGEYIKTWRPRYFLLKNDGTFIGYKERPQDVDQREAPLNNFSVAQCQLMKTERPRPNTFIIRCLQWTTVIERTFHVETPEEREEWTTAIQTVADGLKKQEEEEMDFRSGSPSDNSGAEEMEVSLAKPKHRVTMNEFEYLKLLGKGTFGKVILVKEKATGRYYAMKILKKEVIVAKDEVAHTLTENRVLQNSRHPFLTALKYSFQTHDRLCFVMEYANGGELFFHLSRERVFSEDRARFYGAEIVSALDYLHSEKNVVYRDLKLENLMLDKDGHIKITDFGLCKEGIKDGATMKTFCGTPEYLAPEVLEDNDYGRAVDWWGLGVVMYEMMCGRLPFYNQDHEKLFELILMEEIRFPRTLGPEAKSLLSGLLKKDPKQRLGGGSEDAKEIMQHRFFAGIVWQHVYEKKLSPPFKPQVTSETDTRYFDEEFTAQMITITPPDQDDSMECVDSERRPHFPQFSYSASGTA
Outline: (§1)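 TR-FRET read-out (665/615 nm ratio) after Eu-anti-phospho-crosstide antibody, 1 h. Reaction: compound preincubated with Akt isoform, then 5 nM PDK1, lipid vesicles with 0.55 μM PtdIns(3,4,5)P3, 100 μM ATP, 100 nM crosstide, 30 min, EDTA stop. IC50 from 4-parameter equation.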

p-Akt3 in WM115 cells = molecular target: T3, p-Akt3 in WM115 cells (Homo sapiens, UniProt Q9Y243); assay: Phospho-Akt cellular SureFire assay, p-Akt3 in WM115 cells; type: cell-based; conditions: insulin stimulated, read-out: Biological Assay 2 IC50 (nM) Akt3 WM115
T3 construct: SureFire assays to detect cellular p-Akt1, p-Akt2 and p-Akt3 levels in WM115 cells (Akt2/3) and LNCaP cells (Akt1); endogenous in cells; host or cells: WM115 (ECACC 91061232), insulin-stimulated
T3 sequence (Q9Y243 whole entry): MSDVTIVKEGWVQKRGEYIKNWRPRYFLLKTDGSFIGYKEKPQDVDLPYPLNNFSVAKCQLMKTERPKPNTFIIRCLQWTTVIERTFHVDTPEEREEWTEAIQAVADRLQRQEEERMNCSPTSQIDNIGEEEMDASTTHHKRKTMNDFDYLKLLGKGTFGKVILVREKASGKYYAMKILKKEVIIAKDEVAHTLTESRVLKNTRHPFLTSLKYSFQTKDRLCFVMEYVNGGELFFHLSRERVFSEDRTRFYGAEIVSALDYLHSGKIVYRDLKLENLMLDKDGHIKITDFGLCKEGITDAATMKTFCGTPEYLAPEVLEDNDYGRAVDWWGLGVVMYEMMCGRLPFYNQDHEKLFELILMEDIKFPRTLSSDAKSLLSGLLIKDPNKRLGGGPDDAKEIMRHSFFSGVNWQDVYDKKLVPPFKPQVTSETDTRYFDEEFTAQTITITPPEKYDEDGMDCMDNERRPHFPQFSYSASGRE
Outline: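 pThr308-Akt3 in lysates was quantified by bead-proximity SureFire detection, pairing a phospho-specific antibody with a total Akt3 antibody. Before lysis, WM115 cells in 0.1% FBS medium were treated for 15 min at 37 °C with compound (final DMSO 0.3%), following a 10 min stimulation with 100 nM insulin. IC50 was obtained by 4-parameter fitting.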

p-Akt1 in LNCaP cells = molecular target: T4, p-Akt1 in LNCaP cells (Homo sapiens, UniProt P31749); assay: Phospho-Akt cellular SureFire assay, p-Akt1 in LNCaP cells; type: cell-based; conditions: read-out: Biological Assay 2 IC50 (nM) Akt1 LNCaP
T4 construct: SureFire assays to detect cellular p-Akt1, p-Akt2 and p-Akt3 levels in WM115 cells (Akt2/3) and LNCaP cells (Akt1); endogenous in cells; host or cells: LNCaP (ECACC 89110211)
T4 sequence (P31749 whole entry): as the sequence (P31749 whole entry) above
Outline: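 Phospho-Thr308 Akt1 detected by AlphaScreen SureFire proximity beads in LNCaP lysates after 15 min compound treatment at 37 °C in 0.1% FBS medium, unstimulated, 0.3% DMSO. Cells plated at 5×10^4/well overnight; IC50 from a 4-parameter equation.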

Akt3 = molecular target: T5, Akt3 (Homo sapiens, UniProt Q9Y243); assay: Akt activation assay (PDK1-mediated activation, LANCE Ultra crosstide TR-FRET), Akt3; type: biochemical; conditions: read-out: Biological Assay 1 IC50 (nM) Akt3
T5 construct: unspecified tag, removed (detagged) (cleaved yes); purchased SignalChem and Proteros (Akt3); Merck Millipore (PDK1) 14-452 (PDK1); none given for Akt3
T5 sequence (Q9Y243 whole entry): as the sequence (Q9Y243 whole entry) above
Outline: as §1

Akt2 = molecular target: T6, Akt2 (Homo sapiens, UniProt P31751); assay: Akt activation assay (PDK1-mediated activation, LANCE Ultra crosstide TR-FRET), Akt2; type: biochemical; conditions: read-out: Biological Assay 1 IC50 (nM) Akt2
T6 construct: unspecified tag, removed (detagged) (cleaved yes); purchased SignalChem and Proteros (Akt2); Merck Millipore (PDK1) 14-452 (PDK1); none given for Akt2
T6 sequence (P31751 whole entry): as the sequence (P31751 whole entry) above
Outline: as §1

SMILES: CC(=O)N(C)[C@H]1CC[C@H](CC(=O)Nc2cc(-c3ccccn3)c(-c3ccc(C4(N)CCC4)cc3)cn2)CC1 [Example 76, N-(5′-(4-(1-aminocyclobutyl)phenyl)-[2,4′-bipyridin]-2′-yl)-2-(trans-4-(N-methylacetamido)cyclohexyl)acetamide]
IC50 (p-Akt2 in WM115 cells): > 30000 nM
IC50 (Akt1): > 30000 nM
IC50 (p-Akt3 in WM115 cells): 140 nM
IC50 (p-Akt1 in LNCaP cells): > 30000 nM
IC50 (Akt3): 1000 nM
IC50 (Akt2): > 30000 nM

SMILES: COC(=O)N(C)[C@H]1CC[C@H](CC(=O)Nc2cnc(-c3ccc([C@]4(N)C[C@H](F)C4)cc3)c(-c3ccccc3)c2)CC1 [Example 77, Methyl (trans-4-(2-((6-(4-(trans-1-amino-3-fluorocyclobutyl)phenyl)-5-phenylpyridin-3-yl)amino)-2-oxoethyl)cyclohexyl)(methyl)carbamate]
IC50 (p-Akt2 in WM115 cells): 5100 nM
IC50 (Akt1): 7900 nM
IC50 (p-Akt3 in WM115 cells): 100 nM
IC50 (p-Akt1 in LNCaP cells): > 30000 nM
IC50 (Akt3): 62 nM
IC50 (Akt2): 1100 nM

SMILES: CC(C)(N)c1ccc(-c2nnc(NC(=O)C[C@H]3CC[C@H](N4CCOC4=O)CC3)cc2-c2ccsc2)cc1 [Example 80, N-(6-(4-(2-aminopropan-2-yl)phenyl)-5-(thiophen-3-yl)pyridazin-3-yl)-2-(trans-4-(2-oxooxazolidin-3-yl)cyclohexyl)acetamide]
IC50 (p-Akt2 in WM115 cells): 18000 nM
IC50 (Akt1): > 30000 nM
IC50 (p-Akt3 in WM115 cells): 150 nM
IC50 (p-Akt1 in LNCaP cells): > 30000 nM
IC50 (Akt3): 130 nM
IC50 (Akt2): 8900 nM

SMILES: CCC(=O)N(C)[C@H]1CC[C@H](CC(=O)Nc2cc(-c3ccccc3)c(-c3ccc([C@]4(N)C[C@](C)(O)C4)cc3)cn2)CC1 [Example 82, N-(trans-4-(2-((5-(4-(trans-1-amino-3-hydroxy-3-methylcyclobutyl)phenyl)-4-phenylpyridin-2-yl)amino)-2-oxoethyl)cyclohexyl)-N-methylpropionamide]
IC50 (p-Akt2 in WM115 cells): 380 nM
IC50 (Akt1): > 19000 nM
IC50 (p-Akt3 in WM115 cells): 10 nM
IC50 (p-Akt1 in LNCaP cells): 2400 nM
IC50 (Akt3): 6 nM
IC50 (Akt2): 130 nM

SMILES: COC(=O)N(C)[C@H]1CC[C@H](CC(=O)Nc2cc(-c3ccsc3)c(-c3ccc([C@]4(N)C[C@](C)(O)C4)cc3)nn2)CC1 [Example 84, Methyl (trans-4-(2-((6-(4-(trans-1-amino-3-hydroxy-3-methylcyclobutyl)phenyl)-5-(thiophen-3-yl)pyridazin-3-yl)amino)-2-oxoethyl)cyclohexyl)(methyl)carbamate]
IC50 (p-Akt2 in WM115 cells): 830 nM
IC50 (Akt1): 2600 nM
IC50 (p-Akt3 in WM115 cells): 8 nM
IC50 (p-Akt1 in LNCaP cells): > 19000 nM
IC50 (Akt3): 5 nM
IC50 (Akt2): 140 nM

SMILES: COC(=O)N(C)[C@H]1CC[C@H](CC(=O)Nc2cc(-c3ccccn3)c(-c3ccc(C4(N)CCC4)cc3)cn2)CC1 [Example 86, Methyl (trans-4-(2-((5′-(4-(1-aminocyclobutyl)phenyl)-[2,4′-bipyridin]-2′-yl)amino)-2-oxoethyl)cyclohexyl)(methyl)carbamate]
IC50 (p-Akt2 in WM115 cells): 12000 nM
IC50 (Akt1): > 30000 nM
IC50 (p-Akt3 in WM115 cells): 430 nM
IC50 (p-Akt1 in LNCaP cells): > 30000 nM
IC50 (Akt3): 480 nM
IC50 (Akt2): 14000 nM

More lines, now with the values ahead:

IC50 (p-Akt2 in WM115 cells): 1300 nM
IC50 (Akt1): 10000 nM
IC50 (p-Akt3 in WM115 cells): 44 nM
IC50 (p-Akt1 in LNCaP cells): 9100 nM
IC50 (Akt3): 16 nM
IC50 (Akt2): 350 nM
SMILES: CN(C(=O)C1CC1)[C@H]1CC[C@H](CC(=O)Nc2cc(-c3ccccc3)c(-c3ccc([C@]4(N)C[C@H](F)C4)cc3)nn2)CC1 [Example 71, N-(trans-4-(2-((6-(4-(trans-1-amino-3-fluorocyclobutyl)phenyl)-5-phenylpyridazin-3-yl)amino)-2-oxoethyl)cyclohexyl)-N-methylcyclopropanecarboxamide]

IC50 (p-Akt2 in WM115 cells): 1400 nM
IC50 (Akt1): > 22000 nM
IC50 (p-Akt3 in WM115 cells): 35 nM
IC50 (p-Akt1 in LNCaP cells): > 7500 nM
IC50 (Akt3): 10 nM
IC50 (Akt2): 460 nM
SMILES: CC(=O)N(C)[C@H]1CC[C@H](CC(=O)Nc2cc(-c3ccccc3)c(-c3ccc(C4(N)CC4)cc3)nn2)CC1 [Example 72, N-(6-(4-(1-aminocyclopropyl)phenyl)-5-phenylpyridazin-3-yl)-2-(trans-4-(N-methylacetamido)cyclohexyl)acetamide]

IC50 (p-Akt2 in WM115 cells): 12000 nM
IC50 (Akt1): > 30000 nM
IC50 (p-Akt3 in WM115 cells): 66 nM
IC50 (p-Akt1 in LNCaP cells): > 17000 nM
IC50 (Akt3): 22 nM
IC50 (Akt2): 540 nM
SMILES: CC(=O)N(C)[C@H]1CC[C@H](CC(=O)Nc2cc(-c3ccccc3)c(-c3ccc(C4(N)CC(F)(F)C4)cc3)nn2)CC1 [Example 73, N-(6-(4-(1-amino-3,3-difluorocyclobutyl)phenyl)-5-phenylpyridazin-3-yl)-2-(trans-4-(N-methylacetamido)cyclohexyl)acetamide]

IC50 (p-Akt2 in WM115 cells): 1700 nM
IC50 (Akt1): > 30000 nM
IC50 (p-Akt3 in WM115 cells): 40 nM
IC50 (p-Akt1 in LNCaP cells): > 30000 nM
IC50 (Akt3): 4 nM
IC50 (Akt2): 190 nM
SMILES: N[C@]1(c2ccc(-c3nnc(NC(=O)C[C@H]4CC[C@H](N5CCCC5=O)CC4)cc3-c3ccccc3)cc2)C[C@@H](F)C1 [Example 74, N-(6-(4-(trans-1-amino-3-fluorocyclobutyl)phenyl)-5-phenylpyridazin-3-yl)-2-(trans-4-(2-oxopyrrolidin-1-yl)cyclohexyl)acetamide]

IC50 (p-Akt2 in WM115 cells): 3200 nM
IC50 (Akt1): > 16000 nM
IC50 (p-Akt3 in WM115 cells): 46 nM
IC50 (p-Akt1 in LNCaP cells): > 30000 nM
IC50 (Akt3): 18 nM
IC50 (Akt2): 580 nM
SMILES: CC(=O)N(C)[C@H]1CC[C@H](CC(=O)Nc2cc(-c3ccsc3)c(-c3ccc([C@]4(N)C[C@H](F)C4)cc3)nn2)CC1 [Example 75, N-(6-(4-(trans-1-amino-3-fluorocyclobutyl)phenyl)-5-(thiophen-3-yl)pyridazin-3-yl)-2-(trans-4-(N-methylacetamido)cyclohexyl)acetamide]

IC50 (p-Akt2 in WM115 cells): 810 nM
IC50 (Akt1): 5900 nM
IC50 (p-Akt3 in WM115 cells): 30 nM
IC50 (p-Akt1 in LNCaP cells): 2000 nM
IC50 (Akt3): 14 nM
IC50 (Akt2): 230 nM
SMILES: N[C@]1(c2ccc(-c3ncc(NC(=O)C[C@H]4CC[C@H](N5CCOC5=O)CC4)cc3-c3ccccc3)cc2)C[C@@H](F)C1 [Example 78, N-(6-(4-(trans-1-amino-3-fluorocyclobutyl)phenyl)-5-phenylpyridin-3-yl)-2-(trans-4-(2-oxooxazolidin-3-yl)cyclohexyl)acetamide]

IC50 (p-Akt2 in WM115 cells): > 30000 nM
IC50 (Akt1): > 30000 nM
IC50 (p-Akt3 in WM115 cells): 59 nM
IC50 (p-Akt1 in LNCaP cells): > 30000 nM
IC50 (Akt3): 26 nM
IC50 (Akt2): 590 nM
SMILES: N[C@]1(c2ccc(-c3nnc(NC(=O)C[C@H]4CC[C@H](N5CCOC5=O)CC4)cc3-c3ccsc3)cc2)C[C@@H](F)C1 [Example 79, N-(6-(4-(trans-1-amino-3-fluorocyclobutyl)phenyl)-5-(thiophen-3-yl)pyridazin-3-yl)-2-(trans-4-(2-oxooxazolidin-3-yl)cyclohexyl)acetamide]

IC50 (p-Akt2 in WM115 cells): 250 nM
IC50 (Akt1): 2100 nM
IC50 (p-Akt3 in WM115 cells): 7 nM
IC50 (p-Akt1 in LNCaP cells): 820 nM
IC50 (Akt3): 4 nM
IC50 (Akt2): 86 nM
SMILES: CCC(=O)N(C)[C@H]1CC[C@H](CC(=O)Nc2cc(-c3ccccc3)c(-c3ccc([C@]4(N)C[C@](C)(O)C4)cc3)nn2)CC1 [Example 83, N-(trans-4-(2-((6-(4-(trans-1-amino-3-hydroxy-3-methylcyclobutyl)phenyl)-5-phenylpyridazin-3-yl)amino)-2-oxoethyl)cyclohexyl)-N-methylpropionamide]

IC50 (p-Akt2 in WM115 cells): 3300 nM
IC50 (Akt1): > 30000 nM
IC50 (p-Akt3 in WM115 cells): 130 nM
IC50 (p-Akt1 in LNCaP cells): > 30000 nM
IC50 (Akt3): 29 nM
IC50 (Akt2): 510 nM
SMILES: CN(C(=O)C1CC1)[C@H]1CC[C@H](CC(=O)Nc2cc(-c3ccccc3)c(-c3ccc(C4(N)CC4)cc3)nn2)CC1 [Example 87, N-(trans-4-(2-((6-(4-(1-aminocyclopropyl)phenyl)-5-phenylpyridazin-3-yl)amino)-2-oxoethyl)cyclohexyl)-N-methylcyclopropanecarboxamide]
